Assay results taken from US6331555A, “Treatment of platelet derived growth factor related disorders such as cancers” (priority 1999, dated 2001).
Like-named read-outs stand apart in the source and are kept apart here.

Columns and labels:
EGF receptor = EGF receptor autophosphorylation, T98G glioblastoma cells; format: cell-based, human; conditions: 200, 500; 50 ng/ml EGF
Protocol: Proteins were then separated by SDS-polyacrylamide gel electrophoresis (PAGE). Proteins containing phosphorylated tyrosine were identified by western blotting with an anti-phosphotyrosine antibody. The level of phosphorylated tyrosine was determined by quantitating the amount of bound anti-phosphotyrosine. Quantitation was carried out by peak area integration using a Molecular Dynamics Computing Densitometer (Model 300S), and Image Quant v3.0 software (Molecule Dynamics). Data were expressed as relative peak.intensity (phosphorylation of a receptor divided by the total amount of phosphorylated tyrosine).
T98G cells were plated in MCDB105 medium containing 2% FBS and incubated for 24 hours at 37° C. […] The cells were then treated with ligand for 10 minutes (20 ng/ml PDGF-BB or 50 ng/ml EGF). The cells were lysed and the level of phosphorylated receptor was quantitated as described in Example 1.

T47D = experiment: Tumor cell line growth; format: cell-based; conditions: Homo sapiens, 96 h, breast, 4 days
Protocol: (§1) The assay measures protein content of acid-fixed cells using the counterion binding dye sulforhodamine B (SRB, Sigma). […] For other cell lines, the cells (2000 cells/well in 100 μL) were introduced into wells immediately after dispensing the drug solutions. After 4 days (37° C., 5% CO2) the monolayers were washed 3 times with PBS and fixed with 200 μL ice-cold 10% TCA (Fisher Scientific), and kept at 4° C. for 60 min. The TCA was removed and the fixed monolayers were washed 5 times with tap water and allowed to dry completely at room temperature on absorbent paper. The cellular protein was stained for 10 min with 100 μL 0.4% SRB dissolved in 1% acetic acid. After 5 washes with tap water, the dye was solubilized in 10 mM Tris base (100 μL per well) and absorbance read at 570 nm on a Dynatech plate reader model MR5000. Growth inhibition data are expressed as a percentage of absorbance detected in control wells which were treated with 0.4% DMSO alone. DMSO controls were not different from cells grown in regular growth medium. IC50 values were determined using a four parameter curve fit function.
(§2) For K562, DlB, L1210, 7TDl, T27A, and Colo320 DM cells, an MTT assay was used to assess cell growth. […] The cells were incubated at 37° C. for 4 days in a humidified 7% CO2 atmosphere. At the end point, […] of MTT (5 mg/mL in PBS, Sigma) was added to each well. The plates were incubated at 37° C. for 4 hr followed by addition of […] of solubilization solution (20% w/v of SDS in 50% N, N-dimethylformamide, pH 4.7) to each well. The plates were incubated overnight in a sealed container with a humidified atmosphere. The absorbance was determined at 570 nm wavelength with a reference wavelength of 630 nm using an ELISA plate reader.

SF767 = experiment: Tumor cell line growth; format: cell-based
Protocol: as §1, §2

Ovcar3 = experiment: Tumor cell line growth; format: cell-based; conditions: Homo sapiens, OVCAR-3, 96 h; ovarian, 4 days
Protocol: as §1, §2

MDA MB 468 = experiment: Tumor cell line growth; format: cell-based; conditions: Homo sapiens, MDA-MB-468, 96 h; breast, 4 days
Protocol: as §1, §2

A375 = experiment: Tumor cell line growth; format: cell-based; conditions: Homo sapiens, A-375, 96 h; melanoma, 4 days
Protocol: as §1, §2

ZR75-30 = experiment: Tumor cell line growth; format: cell-based; conditions: Homo sapiens, ZR-75-30, 96 h; breast, 4 days
Protocol: as §1, §2

SF763T = experiment: Tumor cell line growth; format: cell-based; conditions: Homo sapiens, 96 h; glioma, 4 days
Protocol: as §1, §2

ZR 75-1 = experiment: Tumor cell line growth; format: cell-based; conditions: Homo sapiens, ZR-75-1, 96 h; breast, 4 days
Protocol: as §1, §2

SKBR3 = experiment: Tumor cell line growth; format: cell-based; conditions: Homo sapiens, SK-BR-3, 96 h; breast, 4 days
Protocol: as §1, §2

DU145 = experiment: Tumor cell line growth; format: cell-based; conditions: Homo sapiens, DU-145, 96 h; prostate, 4 days
Protocol: as §1, §2

BT474 = experiment: Tumor cell line growth; format: cell-based; conditions: Homo sapiens, BT-474, 96 h; breast, 4 days
Protocol: as §1, §2

PC3 = experiment: Tumor cell line growth; format: cell-based; conditions: Homo sapiens, PC-3, 96 h; prostate, 4 days
Protocol: as §1, §2

U87MG = experiment: Tumor cell line growth; format: cell-based; conditions: Homo sapiens, U-87 MG, 96 h; glioma, 4 days
Protocol: as §1, §2

U1240 = experiment: Tumor cell line growth; format: cell-based; conditions: 96 h; glioma, 4 days
Protocol: as §1, §2

A549 = experiment: Tumor cell line growth; format: cell-based; conditions: Homo sapiens, A549, 96 h; lung, 4 days
Protocol: as §1, §2

U373MG = experiment: Tumor cell line growth; format: cell-based; conditions: Homo sapiens, U373 MG, 96 h; glioma, 4 days
Protocol: as §1, §2

PA-1 = experiment: Tumor cell line growth; format: cell-based; conditions: Homo sapiens, PA-1, 96 h; ovarian, 4 days
Protocol: as §1, §2

A172 = experiment: Tumor cell line growth; format: cell-based; conditions: Homo sapiens, A 172, 96 h; glioma, 4 days
Protocol: as §1, §2

MCF7 = experiment: Tumor cell line growth; format: cell-based; conditions: Homo sapiens, MCF7, 96 h; breast, 4 days
Protocol: as §1, §2

Calu-3 = experiment: Tumor cell line growth; format: cell-based; conditions: Homo sapiens, Calu-3, 96 h; lung, 4 days
Protocol: as §1, §2

T98G = experiment: Tumor cell line growth; format: cell-based; conditions: Homo sapiens, 96 h, glioma, 4 days
Protocol: as §1, §2

K562 = experiment: Tumor cell line growth; format: cell-based; conditions: Homo sapiens, K562, 96 h; leukemia, 4 days
Protocol: as §1, §2

SKOV3 = experiment: Tumor cell line growth; format: cell-based; conditions: Homo sapiens
Protocol: as §1, §2

MDA MB 361 = experiment: Tumor cell line growth; format: cell-based; conditions: Homo sapiens, MDA-MB-361, 96 h; breast, 4 days
Protocol: as §1, §2

Colo 320DM = experiment: Tumor cell line growth; format: cell-based; conditions: Homo sapiens, 96 h, colon, 4 days
Protocol: as §1, §2

SMILES: Cc1oncc1C(=O)Nc1ccc(C(F)(F)F)cc1 [Compound A10, 5-methylisoxazole-4 carboxylic acid-(4-trifluromethyl)-anilide]
- EGF stimulated autophosphorylation of EGF-R (EGF receptor): little if any effect on the ability of EGF to stimulate autophosphorylation of EGF-R
- IC50 (T47D): 195 µM
- IC50 (SF767; SF767, 96 h, glioma, 4 days, read-out: IC50): 87 µM
- IC50 (SF767; SF767, PDGF-R expression -, read-out: SRB): 100 µM
- IC50 (Ovcar3): > 100 µM
- IC50 (MDA MB 468): 150 µM
- IC50 (A375): 25 µM
- IC50 (ZR75-30): 300 µM
- IC50 (SF763T): 0.8 µM
- IC50 (ZR 75-1): 355 µM
- IC50 (SKBR3): > 400 µM
- IC50 (DU145): > 100 µM
- IC50 (BT474): > 100 µM
- IC50 (PC3): 46 µM
- IC50 (U87MG): 78 µM
- IC50 (U1240): 250 µM
- IC50 (A549): 118 µM
- IC50 (U373MG): 115 µM
- IC50 (PA-1): 40 µM
- IC50 (A172): 32 µM
- IC50 (MCF7): 288 µM
- IC50 (Calu-3): > 400 µM
- IC50 (T98G): 62 µM
- IC50 (K562): 26 µM
- IC50 (SKOV3; SK-OV-3, 96 h, ovarian, 4 days, read-out: IC50): > 100 µM
- IC50 (SKOV3; SK-OV-3, PDGF-R expression -, read-out: SRB): > 100 µM
- IC50 (MDA MB 361): 200 µM
- IC50 (Colo 320DM): 34 µM
